Data published in patent US10399988B2, “4-aminopyrazolo[3,4-d]pyrimidinylazabicyclo derivatives and pharmaceutical composition comprising the same” (Daewoong Pharmaceutical Co., Ltd., priority 2016, dated 2019).

Legend:
BTK = BTK (Homo sapiens, UniProt Q06187); test: Inhibitory activity against BTK (ADP-Glo + BTK Kinase enzyme system kit)
ITK = target: T1, ITK (Homo sapiens, UniProt Q08881); test: Inhibitory activity against ITK (ADP-Glo + ITK Kinase enzyme system kit); selectivity BTK vs. ITK; assay type: biochemical; details: for IC50: ITK enzyme 0.4 ng/uL, ATP 25 uM, luminescence, duplicate; for Selectivity (based on IC50): selectivity for the inhibitory activity of BTK vs. ITK, Equation 1
T1 construct: purchased Promega Corporation
T1 sequence (Q08881 1-620): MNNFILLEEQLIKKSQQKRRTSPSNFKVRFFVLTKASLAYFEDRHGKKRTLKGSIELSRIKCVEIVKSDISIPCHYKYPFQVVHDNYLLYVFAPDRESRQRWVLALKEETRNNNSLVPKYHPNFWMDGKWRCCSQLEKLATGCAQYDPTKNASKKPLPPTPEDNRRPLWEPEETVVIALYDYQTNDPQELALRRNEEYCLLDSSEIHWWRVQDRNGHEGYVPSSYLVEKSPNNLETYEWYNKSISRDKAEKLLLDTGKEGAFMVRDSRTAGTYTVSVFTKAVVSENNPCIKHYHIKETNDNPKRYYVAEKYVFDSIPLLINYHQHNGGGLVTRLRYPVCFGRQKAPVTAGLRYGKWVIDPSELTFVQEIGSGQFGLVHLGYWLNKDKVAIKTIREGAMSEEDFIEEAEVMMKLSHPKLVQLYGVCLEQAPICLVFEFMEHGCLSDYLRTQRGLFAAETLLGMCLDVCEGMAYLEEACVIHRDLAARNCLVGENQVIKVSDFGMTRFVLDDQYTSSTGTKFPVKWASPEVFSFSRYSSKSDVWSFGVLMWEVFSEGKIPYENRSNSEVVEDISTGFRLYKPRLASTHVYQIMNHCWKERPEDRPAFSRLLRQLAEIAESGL

Sequence of BTK (Q06187 whole entry): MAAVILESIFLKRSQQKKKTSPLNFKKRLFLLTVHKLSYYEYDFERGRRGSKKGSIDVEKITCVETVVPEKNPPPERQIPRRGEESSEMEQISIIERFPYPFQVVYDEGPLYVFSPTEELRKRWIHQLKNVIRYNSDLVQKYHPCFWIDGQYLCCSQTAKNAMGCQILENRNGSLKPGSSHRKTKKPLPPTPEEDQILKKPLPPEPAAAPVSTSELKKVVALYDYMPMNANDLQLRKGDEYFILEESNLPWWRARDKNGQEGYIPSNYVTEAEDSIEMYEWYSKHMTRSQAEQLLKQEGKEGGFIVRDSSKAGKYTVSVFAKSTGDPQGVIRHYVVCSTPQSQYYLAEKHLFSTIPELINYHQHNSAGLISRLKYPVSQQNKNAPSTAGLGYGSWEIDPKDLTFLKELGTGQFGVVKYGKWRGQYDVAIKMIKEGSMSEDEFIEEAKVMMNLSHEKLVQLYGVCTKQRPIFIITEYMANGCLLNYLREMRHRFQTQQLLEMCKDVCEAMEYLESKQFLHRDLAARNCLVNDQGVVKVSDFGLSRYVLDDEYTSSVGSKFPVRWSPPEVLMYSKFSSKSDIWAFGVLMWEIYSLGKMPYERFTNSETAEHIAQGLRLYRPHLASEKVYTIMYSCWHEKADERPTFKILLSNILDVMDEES

Compound	IC50 (BTK)	IC50 (ITK)	Selectivity (based on IC50) (ITK)
C=CC(=O)N1CC2CC1C(n1nc(-c3ccc(Oc4ccccc4)cc3)c3c(N)ncnc31)C2 (stereo not drawn) [Ex. 1, 1-(6-(4-amino-3-(4-phenoxyphenyl)-1H-pyrazolo[3,4-d]pyrimidin-1-yl)-2-azabicyclo[2.2.1]heptan-2-yl)prop-2-en-1-one]	2.1 nM	189 nM	89.9
C#CC(=O)N1CC2CC1C(n1nc(-c3cccc(Oc4ccccc4)c3)c3c(N)ncnc31)C2 (stereo not drawn) [Ex. 15, 1-(6-(4-amino-3-(3-phenoxyphenyl)-1H-pyrazolo[3,4-d]pyrimidin-1-yl)-2-azabicyclo[2.2.1]heptan-2-yl)prop-2-yn-1-one]	2.1 nM	123 nM	58.3
C=CC(=O)N1CC2CCC1C(n1nc(-c3ccc(Oc4ccccc4)cc3)c3c(N)ncnc31)C2 (stereo not drawn) [Ex. 59, 1-(6-(4-amino-3-(4-phenoxyphenyl)-1H-pyrazolo[3,4-d]pyrimidin-1-yl)-2-azabicyclo[2.2.2]octan-2-yl)prop-2-en-1-one]	2.8 nM	110 nM	39.1
Nc1ncnc2c1c(-c1ccc(Oc3ccccc3)cc1)nn2C1CC2CC1N(C(=O)/C=C/CN1CCCCC1)C2 (stereo not drawn) [Ex. 63, (E)-1-(6-(4-amino-3-(4-phenoxyphenyl)-1H-pyrazolo[3,4-d]pyrimidin-1-yl)-2-azabicyclo[2.2.1]heptan-2-yl)-4-(piperidin-1-yl)but-2-en-1-one]	1.5 nM	> 500 nM	>333.3

Other lines, results leading:

IC50 (BTK)	IC50 (ITK)	Selectivity (based on IC50) (ITK)	Compound
2.4 nM	176 nM	73.1	C=CC(=O)N1CC2CC1C(n1nc(-c3ccc(C(=O)Nc4cc(C)ccn4)cc3)c3c(N)ncnc31)C2 (stereo not drawn) [Ex. 68, 4-(1-(2-acryloyl-2-azabicyclo[2.2.1]heptan-6-yl)-4-amino-1H-pyrazolo[3,4-d]pyrimidin-3-yl)-N-(4-methylpyridin-2-yl)benzamide]
1.6 nM	60.6 nM	37.9	C=CC(=O)N1C[C@@H]2C[C@@H]1[C@@H](n1nc(-c3ccc(C(=O)Nc4ccccn4)cc3F)c3c(N)ncnc31)C2 [Ex. 85, 4-(1-((1R,4R,6S)-2-acryloyl-2-azabicyclo[2.2.1]heptan-6-yl)-4-amino-1H-pyrazolo[3,4-d]pyrimidin-3-yl)-3-fluoro-N-(pyridin-2-yl)benzamide]
